Experimental data: US20230100838A1 (Revolution Medicines, Inc., priority 2019, published 2023)

Columns and labels:
Type in all cases: binding
[1] = target: T1, GDP-loaded K-Ras (1-169) G12D, C51S, C80L, C118S (Homo sapiens, UniProt P01116, C118S/C51S/C80L/G12D); experiment: K-Ras G12D(GDP) cross-linking assay (conjugate formation, TOF mass spectrometry); design: key: 0: No observed x-linking; +: 0 < x ≤ 20; ++: 20 < x ≤ 40; +++: 40 < x ≤ 100; conditions: percent covalently modified K-Ras by MS, room temperature, typical compound conc. 2, 10, 25 μM, endpoints 1 and 24 h
T1 construct: GDP-loaded K-Ras (1-169) G12D, C51S, C80L, C118S
Description: (§1) Protocol: K-Ras G12D(GDP) Cross-Linking Assay
(§2) Note: while the following protocol outlines the procedure for K-Ras G12D(GDP), a person of skill in the art may substitute other Ras proteins, and may also substitute a non-hydrolyzable GTP analog for GDP to study GTP bound Ras protein.
(§3) GDP-loaded K-Ras (1-169) G12D, C51S, C80L, C118S and GDP-loaded K-Ras (1-169) C51S, C80L, C118S were adjusted to 50 μM in K-Ras assay buffer (12.5 mM HEPES, 75 mM NaCl and 1 mM MgCl2 at pH 7.4). A 5 μL aliquot of each protein solution was added to each well of a 96-well microplate containing 40 μL of assay buffer. Initial compound stocks were prepared in DMSO at 100 times their final assay concentration. Compounds were then diluted 10-fold into K-Ras assay buffer to 10 times their final concentration. A 5 μL aliquot of each diluted compound solution was added to each protein solution in the 96-well microplate to initiate the reaction, which then proceeded at room temperature. Typical final compound concentrations were 2, 10, and 25 μM. At each time point, the reactions were analyzed immediately or quenched with 5 μL of a 5% formic acid solution and kept at 4° C. until analysis. Typical assay endpoints were 1 and 24 h.
(§4) Data collection took place on an Agilent 6230 TOF Mass Spectrometer. Complete reactions were injected onto a C4 reverse-phase column to separate protein from buffer components prior to entering the mass spectrometer. The proteins were eluted from the column by increasing acetonitrile fraction in the mobile phase and fed directly into the mass analyzer. Initial analysis of raw data took place in Agilent MassHunter BioConfirm software and consisted of deconvolution of multiple protein charge states with the maximum entropy algorithm, with a mass step of 1 Da. The heights of all deconvoluted protein masses were exported for further data analysis. The percent modification of each protein was then determined by calculating the peak height of the covalently modified K-Ras species as a percentage of the sum total of K-Ras protein peak height.

[2] = target: T2, GDP-loaded K-Ras (1-169) C51S, C80L, C118S (Homo sapiens, UniProt P01116, C118S/C51S/C80L); experiment: K-Ras WT (GDP) cross-linking assay (conjugate formation, TOF mass spectrometry); design: key: 0: No observed x-linking; +: 0 < x ≤ 20; ++: 20 < x ≤ 40; +++: 40 < x ≤ 100; conditions: percent covalently modified K-Ras by MS, room temperature, typical compound conc. 2, 10, 25 μM, endpoints 1 and 24 h
T2 construct: GDP-loaded K-Ras (1-169) C51S, C80L, C118S
Description: as §1, §2, §3, §4

K-Ras G12S = K-Ras G12S (Homo sapiens, UniProt P01116, G12S); experiment: K-Ras G12S cross-linking assay (comparable procedure, conjugate formation, TOF mass spectrometry); design: key: 0: No observed x-linking
Description: as §1, §2, §3, §4

[3] = Table 5, percent covalently modified K-Ras by MS
[4] = Table 4, percent covalently modified K-Ras by MS

| SMILES | G12D x-linking (%) ([1]; Table 5) | WT x-linking (%) ([2]; Table 5) | G12S x-linking (%) (K-Ras G12S; [3]) | G12D x-linking (%) ([1]; Table 4) | WT x-linking (%) ([2]; Table 4) | G12S x-linking (%) (K-Ras G12S; [4]) |
| --- | --- | --- | --- | --- | --- | --- |
| Cc1cccc2cccc(N3CCc4c(nc(OC[C@@H]5CCCN5C)nc4N4CCC(N=C=NC5CCN(C)CC5)CC4)C3)c12 [Example 83, N-(1-(7-(8-methylnaphthalen-1-yl)-2-(((S)-1-methylpyrrolidin-2-yl)methoxy)-5,6,7,8-tetrahydropyrido[3,4-d]pyrimidin-4-yl)piperidin-4-yl)-N-(1-methylpiperidin-4-yl)methanediimine] | +++ (40 < x ≤ 100) | ++ (20 < x ≤ 100) | ++ (10 < x ≤ 100) | – | – | – |
| Cc1cccc2cccc(N3CCc4c(nc(OC[C@@H]5CCCN5C)nc4N4CCC(N=C=NCCn5ccnc5)CC4)C3)c12 [Example 87, N-(2-(1H-imidazol-1-yl)ethyl)-N-(1-(7-(8-methylnaphthalen-1-yl)-2-(((S)-1-methylpyrrolidin-2-yl)methoxy)-5,6,7,8-tetrahydropyrido[3,4-d]pyrimidin-4-yl)piperidin-4-yl)methanediimine] | +++ (40 < x ≤ 100) | ++ (20 < x ≤ 100) | ++ (10 < x ≤ 100) | – | – | – |
| Cc1cccc2cccc(N3CCc4c(nc(OC[C@@H]5CCCN5C)nc4N(C)CCCN=C=NCc4ccc(Cl)cc4)C3)c12 [Example 32, N-(3-((((4-chlorobenzyl)imino)methylene)amino)propyl)-N-methyl-7-(8-methylnaphthalen-1-yl)-2-(((S)-1-methylpyrrolidin-2-yl)methoxy)-5,6,7,8-tetrahydropyrido[3,4-d]pyrimidin-4-amine] | – | – | – | + (0 < x ≤ 20) | + (0 < x ≤ 20) | + (0 < x ≤ 10) |
| CC(=O)N1CC1C(=O)N1CCN(c2ncnc3c(F)c(-c4ccccc4F)c(Cl)cc23)CC1 (stereo not drawn) [Example 17, 1-(2-(4-(6-chloro-8-fluoro-7-(2-fluorophenyl)quinazolin-4-yl)piperazine-1-carbonyl)aziridin-1-yl)ethan-1-one] | – | – | – | + (0 < x ≤ 20) | + (0 < x ≤ 20) | + (0 < x ≤ 10) |
| Cc1cccc2cccc(N3CCc4c(nc(OC[C@@H]5CCCN5C)nc4N4CCC(N=C=NC(C)C)CC4)C3)c12 [Example 23, N-isopropyl-N-(1-(7-(8-methylnaphthalen-1-yl)-2-(((S)-1-methylpyrrolidin-2-yl)methoxy)-5,6,7,8-tetrahydropyrido[3,4-d]pyrimidin-4-yl)piperidin-4-yl)methanediimine] | – | – | – | ++ (20 < x ≤ 40) | + (0 < x ≤ 20) | ++ (10 < x ≤ 100) |
| Cc1cccc2cccc(N3CCc4c(nc(OC[C@@H]5CCCN5C)nc4N4CCC(N=C=NC5CCN(c6ccccc6)CC5)CC4)C3)c12 [Example 84, N-(1-(7-(8-methylnaphthalen-1-yl)-2-(((S)-1-methylpyrrolidin-2-yl)methoxy)-5,6,7,8-tetrahydropyrido[3,4-d]pyrimidin-4-yl)piperidin-4-yl)-N-(1-phenylpiperidin-4-yl)methanediimine] | + (0 < x ≤ 20) | + (0 < x ≤ 20) | + (0 < x ≤ 10) | – | – | – |
| OB(O)C1CCN(c2ncnc3c(F)c(-c4ccccc4F)c(Cl)cc23)CC1 [Example 19, (1-(6-chloro-8-fluoro-7-(2-fluorophenyl)quinazolin-4-yl)piperidin-4-yl)boronic Acid] | – | – | – | 0 | 0 | 0 |
| Cc1cccc2cccc(N3CCc4c(nc(OC[C@@H]5CCCN5C)nc4N4CCN(C5=NCCO5)CC4)C3)c12 [Example 39] | – | – | – | 0 | 0 | 0 |
| Cc1ccc2[nH]ncc2c1N1CCc2c(nc(OC[C@@H]3CCCN3C)nc2N2CCN(C(=O)[C@@H]3CN3)[C@@H](CC#N)C2)C1 [Example 111, 2-((S)-1-((S)-aziridine-2-carbonyl)-4-(7-(5-methyl-1H-indazol-4-yl)-2-(((S)-1-methylpyrrolidin-2-yl)methoxy)-5,6,7,8-tetrahydropyrido[3,4-d]pyrimidin-4-yl)piperazin-2-yl)acetonitrile] | + (0 < x ≤ 20) | 0 | – | – | – | – |
| CO[C@@H]1CCCC[C@H]1N=C=NC1CCN(c2nc(OC[C@@H]3CCCN3C)nc3c2CCN(c2cccc4cccc(C)c24)C3)CC1 [Example 147] | + (0 < x ≤ 20) | + (0 < x ≤ 20) | – | – | – | – |
| COc1ccccc1CN=C=N[C@H]1C[C@H](Nc2nc(OC[C@@H]3CCCN3C)nc3c2CCN(c2cccc4cccc(C)c24)C3)C1 [Example 104, N-((1R,3S)-3-((((2-methoxybenzyl)imino)methylene)amino)cyclobutyl)-7-(8-methylnaphthalen-1-yl)-2-(((S)-1-methylpyrrolidin-2-yl)methoxy)-5,6,7,8-tetrahydropyrido[3,4-d]pyrimidin-4-amine] | + (0 < x ≤ 20) | + (0 < x ≤ 20) | – | – | – | – |
| CC(=O)N1C[C@@H]1C(=O)N1CCN(c2nc(OC[C@@H]3CCCN3C)nc3c2CCN(c2cccc4cccc(C)c24)C3)C[C@@H]1CC#N [Example 98, 2-((S)-1-((R)-1-acetylaziridine-2-carbonyl)-4-(7-(8-methylnaphthalen-1-yl)-2-(((S)-1-methylpyrrolidin-2-yl)methoxy)-5,6,7,8-tetrahydropyrido[3,4-d]pyrimidin-4-yl)piperazin-2-yl)acetonitrile] | + (0 < x ≤ 20) | 0 | – | – | – | – |
| CN1CCC[C@H]1COc1nc2c(c(N3CCN(C(=O)[C@H]4CN4)[C@@H](CC#N)C3)n1)CCN(c1cccc3cccc(Cl)c13)C2 [Example 112, 2-((S)-1-((R)-aziridine-2-carbonyl)-4-(7-(8-chloronaphthalen-1-yl)-2-(((S)-1-methylpyrrolidin-2-yl)methoxy)-5,6,7,8-tetrahydropyrido[3,4-d]pyrimidin-4-yl)piperazin-2-yl)acetonitrile] | ++ (20 < x ≤ 40) | 0 | – | – | – | – |
| Cc1cccc2cccc(N3CCc4c(nc(OC[C@@H]5CCCN5C)nc4N4CCN(C(=O)[C@H]5CN5S(C)(=O)=O)[C@@H](CC#N)C4)C3)c12 (stereo partly drawn) [Example 131] | + (0 < x ≤ 20) | + (0 < x ≤ 20) | – | – | – | – |
| CC(=O)N1C[C@H]1C(=O)N1CCN(c2nc(OC[C@@H]3CCCN3C)nc3c2CCN(c2cccc4cccc(C)c24)C3)C[C@@H]1CC#N [Example 99, 2-((S)-1-((S)-1-acetylaziridine-2-carbonyl)-4-(7-(8-methylnaphthaien-1-yl)-2-(((S)-1-methylpyrrolidin-2-yl)methoxy)-5,6,7,8-tetrahydropyrido[3,4-d]pyrimidin-4-yl)piperazin-2-yl)acetonitrile] | + (0 < x ≤ 20) | + (0 < x ≤ 20) | – | – | – | – |
| Cc1cccc2cccc(N3CCc4c(nc(OC[C@@H]5CCCN5C)nc4N4CCN(C[C@@H]5CN5)[C@@H](CC#N)C4)C3)c12 [Example 101, 2-((S)-1-(((S)-aziridin-2-yl)methyl)-4-(7-(8-methylnaphthalen-1-yl)-2-(((S)-1-methylpyrrolidin-2-yl)methoxy)-5,6,7,8-tetrahydropyrido[3,4-d]pyrimidin-4-yl)piperazin-2-yl)acetonitrile] | + (0 < x ≤ 20) | + (0 < x ≤ 20) | – | – | – | – |
| Cc1cccc2cccc(N3CCc4c(nc(OC[C@@H]5CCCN5C)nc4N4CC[C@@H](NC(=O)C5CN5)C4)C3)c12 (stereo partly drawn) [Example 129] | + (0 < x ≤ 20) | 0 | – | – | – | – |
| Cc1ccc2[nH]ncc2c1-c1cc2ncnc3c2c(c1Cl)OCC[C@@H]1CN(C(=O)[C@@H]2CN2)CCN31 [Example 123] | 0 | 0 | – | – | – | – |
| CO[C@H]1CCCC[C@@H]1N=C=NC1CCN(c2nc(OC[C@@H]3CCCN3C)nc3c2CCN(c2cccc4cccc(C)c24)C3)CC1 [Example 145] | + (0 < x ≤ 20) | + (0 < x ≤ 20) | – | – | – | – |
| COC1CC1N=C=NC1CCN(c2nc(OC[C@@H]3CCCN3C)nc3c2CCN(c2cccc4cccc(C)c24)C3)CC1 (stereo partly drawn) [Example 151] | +++ (40 < x ≤ 100) | + (0 < x ≤ 20) | – | – | – | – |
